# Source: patent US11565998B2, “Succinate prodrug, compositions containing the succinate prodrug and uses thereof” (ABLIVA AB, priority 2019, dated 2023)
# What was measured:
# Type in all cases: physicochemical
# [1] = Solubility of batches of different crystallinity; details: HPLC-grade water, water, thermodynamic from solid, mainly amorphous material (as worded, refers to Example 10); read-out: aqueous solubility
# Method: Two batches of Compound 1 were generated with different crystallinity. Batch 2 had higher crystallinity than Batch 3, which is regarded as having a higher degree of amorphous Compound 1-Batch 2 is therefore regarded as a more crystalline batch, whereas Batch 3 is regarded as a more amorphous batch. The methods used are discussed in this document.
# A sample of the more amorphous Compound 1 batch 3 was added to PBS or water to a final concentration of 258 mg/mL and sonicated for 10 minutes, then shaken for 30 minutes.
# A sample of the more crystalline Compound 1 batch 2 was added to HPLC-grade water (Fisher) to a final concentration of 30 mg/mL and sonicated for 10 minutes, then shaken for 30 minutes.
# A sample of the more crystalline Compound 1 batch 2 was added to HPLC-grade water (Fisher) to a final concentration of 52 mg/mL and sonicated for 20 minutes, then shaken for 1 hour.
# A sample of the more crystalline Compound 1 batch 2 was added to HPLC-grade water (Fisher) to a final concentration of […] and sonicated for 20 minutes, then shaken for 1.5 hours.
# [2] = Mineral instability (inorganic salts in water); details: for Percentage of Compound 1 remaining compared to T = 0: 1 mg/ml, room temperature
# Method: Compound 1 Batch 14 (2-3 mg) was dissolved in water for injection at room temperature (WFI) (1 mg/ml) containing different sources of minerals commonly found in tap water (with different accompanying counter ions to be able to distinguish differences between the effects of cation or anion) and samples were taken at different time intervals for HPLC analysis.
# Mineral sources used in the form of inorganic salts:
# CuCl2, CaCl2), NiSO4, CoCl2, NH4Cl, MnCl2, NaF, NaNO3, CuSO4, Ca(NO3)2, AlSO4, CaCO3, (NH4)2CO3.
# [3] = Carbonate concentration dependence; details: HPLC water, 1 mg/ml
# Method: Compound 1 Batch 14 (2-3 mg) was dissolved in HPLC grade water (1 mg/ml) containing different concentrations of calcium carbonate and samples were taken at different time intervals for HPLC analysis.
smiles,measurement,setting,value
"COC(=O)CCC(=O)SCCNC(C)=O [Compound 1, Methyl 3-[(2-acetylaminoethylthio)carbonyl]propionate]",solubility at 1.5 h,[1],850 mg/mL
same,Percentage of Compound 1 remaining compared to T = 0,"[2]; (NH4)2CO3 in water, batch 14, day 0",100%
same,Percentage of Compound 1 remaining compared to T = 0,"[2]; (NH4)2CO3 in water, batch 14, day 7",91.3%
same,Percentage of Compound 1 remaining compared to T = 0,"[2]; (NH4)2CO3 in water, batch 14, day 14",87.4%
same,Percentage of Compound 1 remaining compared to T = 0,"[2]; AlSO4 in water, batch 14, day 0",100%
same,Percentage of Compound 1 remaining compared to T = 0,"[2]; AlSO4 in water, batch 14, day 7",99.8%
same,Percentage of Compound 1 remaining compared to T = 0,"[2]; AlSO4 in water, batch 14, day 14",100%
same,Percentage of Compound 1 remaining compared to T = 0,"[2]; Ca(NO3)2 in water, batch 14, day 0",100%
same,Percentage of Compound 1 remaining compared to T = 0,"[2]; Ca(NO3)2 in water, batch 14, day 7",99.4%
same,Percentage of Compound 1 remaining compared to T = 0,"[2]; Ca(NO3)2 in water, batch 14, day 14",98.9%
same,Percentage of Compound 1 remaining compared to T = 0,"[2]; CaCO3 in water, batch 14, day 0",100%
same,Percentage of Compound 1 remaining compared to T = 0,"[2]; CaCO3 in water, batch 14, day 7",79.5%
same,Percentage of Compound 1 remaining compared to T = 0,"[2]; CaCO3 in water, batch 14, day 14",66.0%
same,Percentage of Compound 1 remaining compared to T = 0,"[2]; CaCl2 in water, batch 14, day 0",100%
same,Percentage of Compound 1 remaining compared to T = 0,"[2]; CaCl2 in water, batch 14, day 7",100%
same,Percentage of Compound 1 remaining compared to T = 0,"[2]; CaCl2 in water, batch 14, day 14",97.9%
same,Percentage of Compound 1 remaining compared to T = 0,"[2]; CoCl2 in water, batch 14, day 0",100%
same,Percentage of Compound 1 remaining compared to T = 0,"[2]; CoCl2 in water, batch 14, day 7",101%
same,Percentage of Compound 1 remaining compared to T = 0,"[2]; CoCl2 in water, batch 14, day 14",101%
same,Percentage of Compound 1 remaining compared to T = 0,"[2]; CuCl2 in water, batch 14, day 0",100%
same,Percentage of Compound 1 remaining compared to T = 0,"[2]; CuCl2 in water, batch 14, day 7",99.5%
same,Percentage of Compound 1 remaining compared to T = 0,"[2]; CuCl2 in water, batch 14, day 14",98.3%
same,Percentage of Compound 1 remaining compared to T = 0,"[2]; CuSO4 in water, batch 14, day 0",100%
same,Percentage of Compound 1 remaining compared to T = 0,"[2]; CuSO4 in water, batch 14, day 7",100%
same,Percentage of Compound 1 remaining compared to T = 0,"[2]; CuSO4 in water, batch 14, day 14",99.4%
same,Percentage of Compound 1 remaining compared to T = 0,"[2]; MnCl2 in water, batch 14, day 0",100%
same,Percentage of Compound 1 remaining compared to T = 0,"[2]; MnCl2 in water, batch 14, day 7",98.9%
same,Percentage of Compound 1 remaining compared to T = 0,"[2]; MnCl2 in water, batch 14, day 14",99.2%
same,Percentage of Compound 1 remaining compared to T = 0,"[2]; NH4Cl in water, batch 14, day 0",100%
same,Percentage of Compound 1 remaining compared to T = 0,"[2]; NH4Cl in water, batch 14, day 7",101%
same,Percentage of Compound 1 remaining compared to T = 0,"[2]; NH4Cl in water, batch 14, day 14",99.8%
same,Percentage of Compound 1 remaining compared to T = 0,"[2]; NaF in water, batch 14, day 0",100%
same,Percentage of Compound 1 remaining compared to T = 0,"[2]; NaF in water, batch 14, day 7",101%
same,Percentage of Compound 1 remaining compared to T = 0,"[2]; NaF in water, batch 14, day 14",100%
same,Percentage of Compound 1 remaining compared to T = 0,"[2]; NaNO3 in water, batch 14, day 0",100%
same,Percentage of Compound 1 remaining compared to T = 0,"[2]; NaNO3 in water, batch 14, day 7",99.2%
same,Percentage of Compound 1 remaining compared to T = 0,"[2]; NaNO3 in water, batch 14, day 14",99.4%
same,Percentage of Compound 1 remaining compared to T = 0,"[2]; NiSO4 in water, batch 14, day 0",100%
same,Percentage of Compound 1 remaining compared to T = 0,"[2]; NiSO4 in water, batch 14, day 7",98.4%
same,Percentage of Compound 1 remaining compared to T = 0,"[2]; NiSO4 in water, batch 14, day 14",99.1%
same,Percentage of Compound 1 remaining compared to T = 0,"[2]; WFl, batch 14, day 0",100%
same,Percentage of Compound 1 remaining compared to T = 0,"[2]; WFl, batch 14, day 7",98.7%
same,Percentage of Compound 1 remaining compared to T = 0,"[2]; WFl, batch 14, day 14",97.7%
same,degradation in aqueous solution with carbonate ions,[2]; vs other mineral salts,degrades more rapidly
same,Percentage of Compound 1 remaining compared to T = 0,"[3]; CaCO3 (0 mM), batch 14, day 0",100%
same,Percentage of Compound 1 remaining compared to T = 0,"[3]; CaCO3 (0 mM), batch 14, day 7",98.7%
same,Percentage of Compound 1 remaining compared to T = 0,"[3]; CaCO3 (0 mM), batch 14, day 14",98.6%
same,Percentage of Compound 1 remaining compared to T = 0,"[3]; CaCO3 (0.425 mM), batch 14, day 0",100%
same,Percentage of Compound 1 remaining compared to T = 0,"[3]; CaCO3 (0.425 mM), batch 14, day 7",98.1%
same,Percentage of Compound 1 remaining compared to T = 0,"[3]; CaCO3 (0.425 mM), batch 14, day 14",98.4%
same,Percentage of Compound 1 remaining compared to T = 0,"[3]; CaCO3 (0.85 mM), batch 14, day 0",100%
same,Percentage of Compound 1 remaining compared to T = 0,"[3]; CaCO3 (0.85 mM), batch 14, day 7",97.8%
same,Percentage of Compound 1 remaining compared to T = 0,"[3]; CaCO3 (0.85 mM), batch 14, day 14",97.1%
same,Percentage of Compound 1 remaining compared to T = 0,"[3]; CaCO3 (1.7 mM), batch 14, day 0",100%
same,Percentage of Compound 1 remaining compared to T = 0,"[3]; CaCO3 (1.7 mM), batch 14, day 7",93.8%
same,Percentage of Compound 1 remaining compared to T = 0,"[3]; CaCO3 (1.7 mM), batch 14, day 14",90.8%
same,Percentage of Compound 1 remaining compared to T = 0,"[3]; CaCO3 (3.4 mM), batch 14, day 0",100%
same,Percentage of Compound 1 remaining compared to T = 0,"[3]; CaCO3 (3.4 mM), batch 14, day 7",83.4%
same,Percentage of Compound 1 remaining compared to T = 0,"[3]; CaCO3 (3.4 mM), batch 14, day 14",71.4%
